Measured values published in PubChem BioAssay AID588401 (Johns Hopkins Ion Channel Center, 2011).
Active and inactive are the calls of the source.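 How the source made its calls: active means blocks the choline transporter at some tested dose and yields a fitted dose response curve; inconclusive means no clear call, values can overlap the other calls; inactive means no blocking at any dose or no curve.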

target: High affinity choline transporter 1 (Homo sapiens) (UniProt Q9GZV3); experiment: CHT inhibitors, dose response, cell-based, 10-point CRC, membrane potential dye (AID 588401); settings: HEK293-CHT, choline-induced depolarization, at 25 µM (top of the series), cells express LV-AA mutant CHT
Sequence (Q9GZV3 whole entry, looked up): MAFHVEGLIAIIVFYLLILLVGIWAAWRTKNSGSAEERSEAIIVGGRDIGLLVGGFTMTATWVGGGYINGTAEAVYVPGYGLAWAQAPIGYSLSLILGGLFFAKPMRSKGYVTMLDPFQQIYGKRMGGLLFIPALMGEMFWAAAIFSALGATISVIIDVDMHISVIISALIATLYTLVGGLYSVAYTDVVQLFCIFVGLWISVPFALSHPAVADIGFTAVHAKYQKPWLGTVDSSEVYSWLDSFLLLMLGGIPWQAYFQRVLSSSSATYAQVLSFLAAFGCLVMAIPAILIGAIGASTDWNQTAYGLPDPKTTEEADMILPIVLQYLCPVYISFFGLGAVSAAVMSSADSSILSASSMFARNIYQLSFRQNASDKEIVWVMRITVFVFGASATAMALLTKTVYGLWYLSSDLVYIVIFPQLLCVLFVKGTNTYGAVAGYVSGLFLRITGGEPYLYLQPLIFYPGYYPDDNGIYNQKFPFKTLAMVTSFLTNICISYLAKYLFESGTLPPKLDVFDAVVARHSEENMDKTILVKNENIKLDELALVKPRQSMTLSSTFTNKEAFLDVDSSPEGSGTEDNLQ

SMILES	inhibition (negative values = inhibition)
CCCn1nc2cc(C(=O)NCc3ccc(C)cc3)ccc2c1OCC	inactive
COc1ccc(OC)c(/C=C2\SC(=S)N(NS(=O)(=O)c3ccccc3)C2=O)c1	inactive
Cc1cccc(OCC(O)Cn2c(=N)n(Cc3ccccc3)c3ccccc32)c1 (configuration not stated)	inactive
CCOC(=O)c1cccc(NC(=O)CSc2nnc(C)n2Cc2ccccc2)c1	inactive
O=S(=O)(c1ccc(N2CCCC2)nc1)N1CCCC1	inactive
Cc1ccc(-c2cccc(CN3CCN(C(C)C)C(CCO)C3)c2)o1 (configuration not stated)	inactive
CC1CCCCC1NC(=O)Cn1nnc(-c2ccc(Cl)cc2)n1 (configuration not stated)	inactive
CC(/C=N/NC(=O)c1cc(-c2ccncc2)nc2ccccc12)=C\c1ccco1	inactive
Cc1ccccc1CCNCc1cc2cccc(C)c2[nH]c1=O	inactive
Cc1noc(NS(=O)(=O)c2ccc(NC(=O)COc3ccc(Cl)cc3Cl)cc2)c1C	inactive
CCOC(=O)c1nc(NNC(=O)c2ccc([N+](=O)[O-])cc2)sc1C	inactive
CCN(CC(=O)Nc1cccc(OC)c1)c1ncnc2sc(C)c(C)c12	inactive
CCOC(=O)c1c(NC(=O)C2C3C=CC(C3)C2C(=O)O)sc2c1CCC(CC)C2 (configuration not stated)	inactive
COc1cc2c(cc1OC)-c1cc(NC3CCCCCCC3)nc(=O)n1CC2	inactive
CCOCCCNC(=O)/C(C#N)=C/c1ccc([N+](=O)[O-])o1	inactive
CCCNc1nc2c(c(=O)n(C)c(=O)n2C)n1CCC(C)C	inactive
COC(=O)/C(=C/c1c[nH]c2ccccc12)[N+](=O)[O-]	inactive
Fc1ccc(NC(=S)Nc2ccc(F)c(Cl)c2)cc1Cl	inactive

Now from value to compound:

inhibition (negative values = inhibition)	SMILES
inactive	C/C(=N\NS(=O)(=O)c1ccc(Cl)c([N+](=O)[O-])c1)c1cc2ccccc2o1
inactive	CC(C)C(=O)Nc1cccc(NC(=O)c2ccc(Cl)cc2Cl)c1
inactive	CC(/C=C1\SC(=S)N(NS(=O)(=O)c2ccccc2)C1=O)=C\c1ccccc1
inactive	CCCCc1cc(O)c(CCCC)c(O)c1
inactive	CCS(=O)(=O)C1=NN2C(=N)/C(=C\c3ccc(OS(=O)(=O)c4ccccc4)cc3)C(=O)N=C2S1
inactive	COc1cc(NC(=O)c2csc(-c3ccncc3)n2)cc(C(=O)Nc2cccc(C(F)(F)F)c2)c1
inactive	COc1ccc(-c2csc(Cc3nnc4n3CCCCC4)n2)cc1
inactive	O=c1c2cc(Br)ccc2nc(-c2ccc(Cl)cc2)n1O
inactive	COc1cc(/C=C2\S/C(=N/S(=O)(=O)Cc3ccccc3)NC2=O)c([N+](=O)[O-])cc1OC
inactive	O=[N+]([O-])c1ccc(S(=O)(=O)Nc2nc(-c3ccccc3)cs2)cc1
inactive	COc1ccccc1Nc1nnc(SCC2CCCCO2)s1 (configuration not stated)
inactive	O=C1ON=C(c2ccccc2)/C1=C/c1ccc(O)c(O)c1
inactive	Cc1cc(Cl)ccc1OCCCC(=O)N1CCN(C(=O)c2ccco2)CC1

same assay, conditions: HEK293-CHT, choline-induced depolarization, cells express LV-AA mutant CHT

IC50	SMILES
4.47 µM	Cc1ccc(NC(=O)c2ccc(CN3CC(=O)N4CCCCC4C3=O)cc2)c(C)c1 (configuration not stated)
